Assay results as given in ChEMBL document CHEMBL1201862, “PubChem BioAssay data set” (2004).
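Results reflect a 48-hour exposure of cells in 96-well plates to compound at five concentrations. The concentration for 50% growth inhibition is given as GI50.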 The source made the active and inactive calls. Cut-off read from the data, not from the text of the source: active = GI50 up to about 1.1 µM and inactive = higher.

Tests used:
Assay in all cases: growth of human tumour cells (NCI), 48 h
A549 = tested on: A549
BT-549 = tested on: BT-549
EKVX = tested on: EKVX
HCC 2998 = tested on: HCC 2998
HOP-62 = tested on: HOP-62
K562 = tested on: K562
MDA-MB-435 = tested on: MDA-MB-435
MDA-N = tested on: MDA-N
NCI/ADR-RES = tested on: NCI/ADR-RES
OVCAR-5 = tested on: OVCAR-5
OVCAR-8 = tested on: OVCAR-8
PC-3 = tested on: PC-3
RPMI-8226 = tested on: RPMI-8226
RXF 393 = tested on: RXF 393
SF-539 = tested on: SF-539
SNB-75 = tested on: SNB-75
T47D = tested on: T47D
U-251 = tested on: U-251
MOLT-4 = tested on: MOLT-4

Measured: GI50

COc1cccc2[nH]c(-c3ccccn3)nc12
inactive: A549 > 100 µM | BT-549 > 100 µM | EKVX > 100 µM | HCC 2998 > 100 µM | HOP-62 74 µM | K562 > 100 µM | MDA-MB-435 > 100 µM | MDA-N > 100 µM | NCI/ADR-RES 14.3 µM | OVCAR-5 > 100 µM | OVCAR-8 > 100 µM | PC-3 > 100 µM | RPMI-8226 32.4 µM | RXF 393 > 100 µM | SF-539 > 100 µM | SNB-75 > 100 µM | T47D > 100 µM | U-251 > 100 µM

Cc1ccc(NC(=O)c2cccc(OP(=O)(Nc3ccc(C)cc3)Nc3ccc(C)cc3)c2)cc1
inactive: A549 3.46 µM | BT-549 22.2 µM | EKVX 7.94 µM | HCC 2998 5.21 µM | HOP-62 28.7 µM | K562 > 100 µM | MDA-MB-435 7.48 µM | MDA-N 3.78 µM | MOLT-4 2.61 µM | NCI/ADR-RES 12 µM | OVCAR-5 38.5 µM | OVCAR-8 16 µM | PC-3 7.78 µM | RXF 393 1.91 µM | SF-539 23.3 µM | SNB-75 4.14 µM | T47D 5.53 µM | U-251 6.58 µM

N#Cc1c(-c2ccccc2)c(/N=N/c2ccc(Cl)cc2)c(=O)n2c1[nH]c1ccccc12
inactive: A549 > 100 µM | BT-549 > 100 µM | EKVX 71.4 µM | HCC 2998 52.6 µM | HOP-62 27.2 µM | MDA-MB-435 > 100 µM | MDA-N > 100 µM | NCI/ADR-RES 92.9 µM | OVCAR-5 > 100 µM | OVCAR-8 90.2 µM | PC-3 > 100 µM | RPMI-8226 39.9 µM | RXF 393 42.1 µM | SF-539 > 100 µM | SNB-75 71 µM | T47D 97.1 µM | U-251 21.2 µM

COc1ccccc1C1c2cc3c(cc2OC(N2CCCC2)C1C)OCO3 (centres undefined)
inactive: A549 18.4 µM | BT-549 16.8 µM | EKVX 18.3 µM | HCC 2998 15.8 µM | HOP-62 15.1 µM | K562 15.1 µM | MDA-MB-435 12.4 µM | MDA-N 11.1 µM | MOLT-4 3.16 µM | NCI/ADR-RES 18.5 µM | OVCAR-5 19.2 µM | OVCAR-8 21.2 µM | PC-3 16 µM | RPMI-8226 14.8 µM | RXF 393 3.76 µM | SF-539 14.9 µM | SNB-75 12.9 µM | T47D 13.9 µM | U-251 18.8 µM

C=CC(C)(O)/C=C/C=C(\C)C(CC1OC1(C)C)OC(=O)/C(C)=C\C (centres undefined)
inactive: A549 > 100 µM | BT-549 > 100 µM | EKVX > 100 µM | HCC 2998 > 100 µM | HOP-62 > 100 µM | K562 > 100 µM | MDA-MB-435 > 100 µM | MDA-N > 100 µM | MOLT-4 > 100 µM | NCI/ADR-RES > 100 µM | OVCAR-5 > 100 µM | OVCAR-8 > 100 µM | PC-3 > 100 µM | RPMI-8226 > 100 µM | RXF 393 > 100 µM | SF-539 > 100 µM | SNB-75 > 100 µM | T47D > 100 µM | U-251 > 100 µM

COc1ccc(N2C(=O)c3cccnc3S2(=O)=O)cc1
inactive: A549 > 100 µM | BT-549 > 100 µM | EKVX > 100 µM | HCC 2998 > 100 µM | HOP-62 > 100 µM | K562 > 100 µM | MDA-MB-435 > 100 µM | MDA-N > 100 µM | MOLT-4 > 100 µM | NCI/ADR-RES > 100 µM | OVCAR-5 > 100 µM | OVCAR-8 > 100 µM | PC-3 > 100 µM | RPMI-8226 > 100 µM | RXF 393 > 100 µM | SF-539 > 100 µM | SNB-75 > 100 µM | T47D > 100 µM | U-251 > 100 µM

CCCCC(=O)OC[n+]1ccc(-c2c(COC(=O)NC(C)C)c(COC(=O)NC(C)C)c3n2CCC3)cc1
inactive: A549 > 100 µM | BT-549 > 100 µM | EKVX > 100 µM | HCC 2998 > 100 µM | HOP-62 > 59.6 µM | K562 > 90.8 µM | MDA-MB-435 > 100 µM | MDA-N > 100 µM | MOLT-4 19.5 µM | NCI/ADR-RES > 100 µM | OVCAR-5 > 100 µM | OVCAR-8 > 100 µM | PC-3 > 84.5 µM | RPMI-8226 > 68.7 µM | RXF 393 64 µM | SF-539 40.4 µM | SNB-75 60.3 µM | T47D > 100 µM | U-251 > 71.3 µM

O=C(O)c1ccc([N+](=O)[O-])c2cc3cnccc3nc12
inactive: BT-549 19.1 µM | HCC 2998 22.3 µM | HOP-62 31.6 µM | K562 5.78 µM | MDA-MB-435 26.9 µM | MDA-N 20.6 µM | MOLT-4 3.91 µM | NCI/ADR-RES 25.9 µM | OVCAR-5 33.7 µM | OVCAR-8 22.4 µM | PC-3 15.5 µM | RPMI-8226 39.7 µM | RXF 393 27.1 µM | SNB-75 19.3 µM | T47D 18.6 µM | U-251 19.9 µM

COC(OC)(c1ccccc1)C(I)I
inactive: A549 18.5 µM | BT-549 11 µM | EKVX 12 µM | HCC 2998 23.1 µM | HOP-62 28.1 µM | K562 2.58 µM | MDA-MB-435 4.37 µM | MDA-N 7.96 µM | MOLT-4 2.38 µM | NCI/ADR-RES 16.3 µM | OVCAR-5 16.2 µM | OVCAR-8 17.9 µM | PC-3 14.2 µM | RPMI-8226 2.09 µM | RXF 393 2.32 µM | SF-539 12.7 µM | SNB-75 13.1 µM | T47D 19.2 µM | U-251 16.5 µM

CCN(CC)CCCn1c(=O)c2cccnc2n2c3c(=O)n(C)c(=O)n(C)c3nc12
inactive: A549 > 100 µM | BT-549 > 100 µM | EKVX > 100 µM | HCC 2998 > 100 µM | HOP-62 > 100 µM | K562 > 100 µM | MDA-MB-435 > 100 µM | MDA-N > 100 µM | MOLT-4 > 100 µM | NCI/ADR-RES > 100 µM | OVCAR-5 > 100 µM | OVCAR-8 > 100 µM | PC-3 > 100 µM | RPMI-8226 > 100 µM | RXF 393 > 100 µM | SF-539 > 100 µM | SNB-75 > 100 µM | T47D > 100 µM | U-251 > 100 µM

CC1(C)OC(=O)N(c2ccccc2)C12C=Cc1cc([N+](=O)[O-])ccc1O2 (centres undefined)
inactive: A549 53.2 µM | BT-549 51.6 µM | EKVX 23.8 µM | HCC 2998 29.2 µM | HOP-62 32.1 µM | K562 29 µM | MDA-MB-435 20 µM | MDA-N 22.6 µM | MOLT-4 21.7 µM | NCI/ADR-RES 30.2 µM | OVCAR-5 26.9 µM | OVCAR-8 51.6 µM | PC-3 22.7 µM | RPMI-8226 48.5 µM | RXF 393 60.3 µM | SNB-75 43.2 µM | T47D 33 µM | U-251 35.8 µM

NC1=NC(NCC2(CO)CCC2)=CC(OCC2(CO)CCC2)N1 (centres undefined)
inactive: A549 > 100 µM | BT-549 > 100 µM | EKVX > 100 µM | HCC 2998 > 100 µM | HOP-62 > 100 µM | K562 44.8 µM | MDA-MB-435 > 100 µM | MDA-N > 100 µM | MOLT-4 65.9 µM | NCI/ADR-RES > 100 µM | OVCAR-5 > 100 µM | OVCAR-8 > 100 µM | PC-3 > 100 µM | RPMI-8226 > 100 µM | RXF 393 > 100 µM | SNB-75 > 100 µM | T47D 62.2 µM | U-251 > 100 µM

CN(NC(=O)c1cccs1)C1=NCCN1
inactive: A549 > 100 µM | BT-549 > 100 µM | EKVX > 100 µM | HCC 2998 > 100 µM | HOP-62 > 100 µM | K562 > 100 µM | MDA-MB-435 > 100 µM | MDA-N > 100 µM | MOLT-4 > 100 µM | NCI/ADR-RES > 100 µM | OVCAR-5 > 100 µM | OVCAR-8 > 100 µM | PC-3 > 100 µM | RPMI-8226 > 100 µM | RXF 393 > 100 µM | SF-539 > 100 µM | SNB-75 > 100 µM | T47D > 100 µM | U-251 > 100 µM

COC(=O)CC(=O)Nc1sccc1S(=O)(=O)c1ccccc1
inactive: A549 > 100 µM | BT-549 27.5 µM | EKVX > 100 µM | HCC 2998 15.8 µM | K562 80.7 µM | MDA-MB-435 > 100 µM | MDA-N 35.2 µM | MOLT-4 > 100 µM | NCI/ADR-RES > 100 µM | OVCAR-5 > 100 µM | OVCAR-8 > 100 µM | PC-3 34.4 µM | RPMI-8226 > 100 µM | RXF 393 44.4 µM | SF-539 35.1 µM | SNB-75 > 100 µM | T47D > 100 µM | U-251 > 100 µM

N=C1CCCC1C(=S)SCCC(N)=O (centres undefined)
inactive: A549 > 100 µM | BT-549 > 100 µM | EKVX > 100 µM | HCC 2998 > 100 µM | HOP-62 > 100 µM | MDA-MB-435 > 100 µM | MDA-N > 100 µM | MOLT-4 > 100 µM | NCI/ADR-RES > 100 µM | OVCAR-5 > 100 µM | OVCAR-8 > 100 µM | PC-3 > 100 µM | RPMI-8226 > 100 µM | RXF 393 > 100 µM | SF-539 > 100 µM | SNB-75 61.4 µM | T47D > 100 µM | U-251 > 100 µM
